The text below walks through data of US12139492B2 (Endotarget Inc., priority 2021, dated 2024).

Like-named read-outs stand apart in the source and are kept apart here.

The test system of one assay is Mino cells. Briefly: Antiproliferative effect, MTS cell viability assay, Mino cells. The format is cell-based. The note with it: Homo sapiens, MINO, Mino mantle cell lymphoma cells; read-out: IC50 (anti-proliferation) Mino cells. In outline: (§1)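 Steps: seed B-cell lymphoma line; add compound at 0, 0.001, 0.01, 0.1, 1 or 10 μM; incubate 72 h; add MTS and read reduced tetrazolium (formazan) absorbance at 490 nm.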

The subject of a further assay is JeKo-1 cells. Briefly: Antiproliferative effect, MTS cell viability assay, JeKo-1 cells. The format is cell-based. The note with it: Homo sapiens; JeKo-1 mantle cell lymphoma cells; read-out: IC50 (anti-proliferation) JeKO-1 cells. In outline: as §1
Background: Tetrazolium assays rely on reduction of a dye to a coloured formazan, in cell work by metabolically active cells.

The target in a further assay is BTK (Homo sapiens, UniProt Q06187). Briefly: Degradation of BTK protein in Namalwa cells (Western blot; DC50, Dmax). The note with it: for DC50: cell line not given. On the technique in general: In western blotting, separated proteins are transferred to a membrane and probed.
Chain of BTK (Q06187 whole entry): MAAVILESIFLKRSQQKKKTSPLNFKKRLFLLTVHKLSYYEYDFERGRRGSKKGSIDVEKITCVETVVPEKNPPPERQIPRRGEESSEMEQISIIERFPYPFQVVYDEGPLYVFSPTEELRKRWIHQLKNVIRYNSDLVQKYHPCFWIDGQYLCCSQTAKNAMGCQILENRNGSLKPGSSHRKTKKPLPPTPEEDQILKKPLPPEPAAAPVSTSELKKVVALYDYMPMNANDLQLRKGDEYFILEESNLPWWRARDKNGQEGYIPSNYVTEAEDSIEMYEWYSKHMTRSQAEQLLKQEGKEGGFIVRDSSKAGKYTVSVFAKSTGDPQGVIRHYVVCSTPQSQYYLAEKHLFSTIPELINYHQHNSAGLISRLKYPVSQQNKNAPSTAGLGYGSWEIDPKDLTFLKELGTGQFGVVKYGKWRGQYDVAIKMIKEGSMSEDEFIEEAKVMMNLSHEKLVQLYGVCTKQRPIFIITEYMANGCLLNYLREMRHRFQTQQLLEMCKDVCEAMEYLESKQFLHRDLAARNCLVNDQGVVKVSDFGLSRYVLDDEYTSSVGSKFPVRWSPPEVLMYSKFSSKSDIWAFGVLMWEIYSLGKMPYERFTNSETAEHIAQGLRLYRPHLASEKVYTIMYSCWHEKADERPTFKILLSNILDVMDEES
Where [1] appears, read: read-out: DC50 (BTK degradation), concentration giving 50% reduction of BTK expression level.
Setting [2] is: read-out: Dmax (BTK degradation).

In the case of `NC(=O)c1c(-c2ccc(Oc3ccccc3)cc2)nn2c1NCC[C@H]2C1CCN(CC2CCN(CC3CCN(c4ccc5c(c4)C(=O)N(C4CCC(=O)NC4=O)C5=O)CC3)CC2)CC1` (stereo partly drawn) [Compound 329, (7S)-7-(1-((1-((1-(2-(2,6-dioxopiperidin-3-yl)-1,3-dioxoisoindolin-5-yl)piperidin-4-yl)methyl)piperidin-4-yl)methyl)piperidin-4-yl)-2-(4-phenoxyphenyl)-4,5,6,7-tetrahydropyrazolo[1,5-a]pyrimidine-3-carboxamide], the IC50 with Mino cells and in the assay on JeKo-1 cells was greater than 10000 nM each time. Also, the Dmax – broadly, the largest share of the target that was removed – at BTK is greater than 75%. In addition, the DC50 (in general, the midpoint of the concentration-degradation curve) on BTK (BTK degradation) is 10 to 50 nM.

`NC(=O)c1c(-c2ccc(Oc3ccccc3)cc2)nn2c1NCC[C@H]2C1CCN(C2CCN(C(=O)N3CCC(C4CCN(c5ccc6c(c5)CN(C5CCC(=O)NC5=O)C6=O)CC4)CC3)CC2)CC1` (stereo partly drawn) [Compound 384, (7S)-7-(1′-(1′-(2-(2,6-dioxopiperidin-3-yl)-1-oxoisoindolin-5-yl)-[4,4′-bipiperidine]-1-carbonyl)-[1,4′-bipiperidin]-4-yl)-2-(4-phenoxyphenyl)-4,5,6,7-tetrahydropyrazolo[1,5-a]pyrimidine-3-carboxamide]: the values for the IC50 in the assay with Mino cells and with JeKo-1 cells were less than 1000 nM and 1000 to 10000 nM, respectively. On BTK, the Dmax is greater than 90%. Besides, the DC50 on BTK (BTK degradation) is less than 10 nM.

Turning to `Nc1ncnc2c1c(-c1ccc(Oc3ccccc3)cc1)nn2C1CCN(C2CCN(CCCN3CCN(c4ccc(N5CCC(=O)NC5=O)cc4)CC3)CC2)CC1` [Compound 572, 1-(4-(4-(3-(4-(4-amino-3-(4-phenoxyphenyl)-1H-pyrazolo[3,4-d]pyrimidin-1-yl)-[1,4′-bipiperidin]-1′-yl)propyl)piperazin-1-yl)phenyl)dihydropyrimidine-2,4(1H,3H)-dione], the IC50 in the assay with Mino cells and in the assay on JeKo-1 cells was less than 1000 nM throughout. For the same compound, the DC50 on BTK (setting [1]) lay in the range of 10 to 50 nM. On BTK (setting [2]), the Dmax was greater than 90%.

For the compound `Nc1ncnc2c1c(-c1ccc(Oc3ccccc3)cc1)nn2C1CCN(C2CCN(CCCCC#Cc3ccc(N4CCC(=O)NC4=O)cc3)C2)CC1` (stereo not drawn) [Compound 536, 1-(4-(6-(3-(4-(4-amino-3-(4-phenoxyphenyl)-1H-pyrazolo[3,4-d]pyrimidin-1-yl)piperidin-1-yl)pyrrolidin-1-yl)hex-1-yn-1-yl)phenyl)dihydropyrimidine-2,4(1H,3H)-dione], the IC50 in the assay with Mino cells and in the assay on JeKo-1 cells was greater than 10000 nM throughout. On BTK (setting [1]), the half-maximal degradation concentration (DC50) was greater than 50 nM. Further, the Dmax on BTK (setting [2]) was greater than 50%.

Regarding `Nc1ncnc2c1c(-c1ccc(Oc3ccccc3)cc1)nn2C1CCN(C2CCN(CCC3CCN(c4ccc5c(c4)C(=O)N(C4CCC(=O)NC4=O)C5=O)CC3)CC2)CC1` (stereo not drawn) [Compound 215, 5-(4-(2-(4-(4-amino-3-(4-phenoxyphenyl)-1H-pyrazolo[3,4-d]pyrimidin-1-yl)-[1,4′-bipiperidin]-1′-yl)ethyl)piperidin-1-yl)-2-(2,6-dioxopiperidin-3-yl)isoindoline-1,3-dione], the IC50 with Mino cells is 1000 to 10000 nM; in the assay with JeKo-1 cells, less than 1000 nM. Besides, the Dmax on BTK was greater than 75%. The compound further had a DC50 at BTK (BTK degradation) of 10 to 50 nM.

Regarding `Nc1ncnc2c1c(-c1ccc(Oc3ccccc3)cc1)nn2C1CCN(C2CCN(C(=O)N3CCC(CCCN4CCC(c5ccc6c(c5)C(=O)N(C5CCC(=O)NC5=O)C6=O)CC4)CC3)CC2)CC1` (stereo not drawn) [Compound 267, 5-(1-(3-(1-(4-(4-amino-3-(4-phenoxyphenyl)-1H-pyrazolo[3,4-d]pyrimidin-1-yl)-[1,4′-bipiperidine]-1′-carbonyl)piperidin-4-yl)propyl)piperidin-4-yl)-2-(2,6-dioxopiperidin-3-yl)isoindoline-1,3-dione], the IC50 with Mino cells and with JeKo-1 cells was 1000 to 10000 nM in each case. At BTK, this compound came in with a maximal degradation (Dmax) greater than 90%. Also, the 50% degradation concentration (DC50) on BTK (BTK degradation) was in the range of 10 to 50 nM.
